Assay results taken from ChEMBL document CHEMBL1157117, “Synthesis of [11C]SSR149415 and preliminary imaging studies using positron emission tomography” (Bioorg Med Chem Lett, 2010).

What was measured:
[1] = Biodistribution in baboon liver at 2.5+/-0.8 mCi, iv followed by second dose administered > 2 hrs after initial dose measured per cc after 90 mins; assay type: ADME, organism-based; conditions: papio anubis, in vivo, 1.5 h
[2] = Biodistribution in baboon heart at 2.5+/-0.8 mCi, iv followed by second dose administered > 2 hrs after initial dose measured per cc after 90 mins; assay type: ADME, organism-based; conditions: papio anubis, in vivo, 1.5 h
[3] = Biodistribution in baboon spleen at 2.5+/-0.8 mCi, iv followed by second dose administered > 2 hrs after initial dose measured per cc after 90 mins; assay type: ADME, organism-based; conditions: papio anubis, in vivo, 1.5 h
[4] = Biodistribution in baboon lung at 2.5+/-0.8 mCi, iv followed by second dose administered > 2 hrs after initial dose measured per cc after 90 mins; assay type: ADME, organism-based; conditions: papio anubis, in vivo, 1.5 h
[5] = Selectivity ratio of vasopressin V1b receptor over vasopressin V1a receptor
[6] = Selectivity ratio of vasopressin V1b receptor over vasopressin V2 receptor
[7] = Selectivity ratio of vasopressin V1b receptor over oxytocin receptor
[8] = Octanol/water partition coefficient, log D of the compound; assay type: physicochemical
[9] = Fraction unbound in baboon plasma; assay type: ADME, cell-free; conditions: papio anubis
[10] = Metabolic stability in baboon blood at 2.5+/-0.8 mCi, iv after 10 mins; assay type: ADME, organism-based; conditions: papio anubis, read-out: Stability

## COc1ccc(S(=O)(=O)N2C(=O)[C@@](c3ccccc3OC)(N3C[C@H](O)C[C@H]3C(=O)N(C)C)c3cc(Cl)ccc32)c(OC)c1 [NELIVAPTAN]
[1]
  Drug uptake: 0.1 %ID
[2]
  Drug uptake: 0.01 %ID
[3]
  Drug uptake: 0.01 %ID
[4]
  Drug uptake: 0.01 %ID
[5]
  Ratio: 100
[6]
  Ratio: 100
[7]
  Ratio: 100

## COc1ccccc1[C@@]1(N2C[C@H](O)C[C@H]2C(=O)N(C)C)C(=O)N(S(=O)(=O)c2ccc(O[11CH3])cc2OC)c2ccc(Cl)cc21
[8]
  logD: 3.22
[9]
  fraction unbound: 0.0254
[10]
  remaining at 10 min: 50%
